# What was measured:
# [1] = tested on: various pathogenic bacteria; set-up: method as in PMID 26039736; conditions: cited from earlier work
# [2] = tested on: PC3-DR; assay: MTT assay, cell viability; type: cell-based, human
# Description: To examine the anticancer potential and selectivity of NB, we used a panel of six human prostate cancer cell lines, harboring different levels of treatment resistance to representatively reflect the heterogeneity of the disease. […] Additionally, four human noncancer cells lines were utilized in order to determine the selectivity of NB towards prostate cancer cells, i.e., prostate noncancer PNT2 and RWPE-1 cells, human embryonic kidney HEK 293T cells, and human fibroblasts MRC-9. The different cell lines were treated with NB and the cell viability was examined using MTT assay (Figure 1). The mean IC50 of NB and docetaxel (used as a reference substance) in noncancerous cell lines was divided by the mean IC50 in the prostate cancer cell lines to determine the selectivity index (SI).
# The MTT assay was used to monitor the effect of the drugs on cell viability in terms of metabolic activity, as previously reported. First, preincubation of the cells in 96-well plates (6 × 10^3 cells/well in 100 μL/well) was performed overnight in the correspondent culture medium. Next, the medium was exchanged for fresh medium containing the investigated compounds or a vehicle (100 μL/well). Cells were then incubated for 48 h, unless otherwise stated. Then, 10 μL/well of 3-(4,5-dimethylthiazol-2-yl)-2,5-diphenyltetrazolium bromide reagent (MTT, 5 mg/mL) were added. After 2–4 h of additional incubation the media was removed, and the plates were dried. Finally, 50 μL/well of DMSO were added to solve the formed formazan crystals produced by the metabolic active cells and Infinite F200PRO reader (TECAN, Männedorf, Switzerland) was used to measure the cell viability. The results were proceeded with a GraphPad Prism software v.9.1.1 (GraphPad Software, San Diego, CA, USA). Cells treated with the solvent of the drugs alone were used as a control (100% alive cells). The effect of the drugs on cell viability is represented as IC50.
# [3] = tested on: panel of 14 human cancer cell lines and one prostate cancer cell line DU145; set-up: method as in PMID 26039736; conditions: panel of 14 human cancer cell lines and DU145, no significant anticancer activity; cited from earlier work
# [4] = tested on: caspase-3 in PC3-DR cells; assay: Western blotting, caspase-3 cleavage; type: cell-based, human; conditions: 48 h
# Experimental: Number of replicates n = 3. […] Viability was measured using an MTT assay. Number of replicates n = 3.
# It is important to note that a reduction in p-gp activity could be conditioned by p-gp degradation or cell death-related processes. Consequently, using a Western blotting analysis, we measured p-gp expressional levels in the treated PC3-DR cells. […] Thus, the observed effect on p-gp activity seems to be exclusively related to the interaction of NB with p-gp rather than result from any cell death-related events.
# The Western blot assay was executed as previously described: 1 × 10^6 cells were seeded in Petri dishes (ø 6 cm, 5 mL/dish) and incubated overnight. On the next day, the cells were treated with the compounds in fresh culture media (5 mL/dish) for the indicated time. Next, cells were harvested with a cell scraper and lysed in lysis buffer including protease and phosphatase inhibitors cocktail (Roche, Mannheim, Germany). Cell debris were removed from the protein lysates via centrifugation. Afterwards, the cell-free protein mixtures were separated in gradient ready-made Mini-PROTEAN® TGX Stain-Free^TM gels (Bio-Rad, Hercules, CA, USA) using SDS-PAGE (sodium dodecylsulfate polyacrylamide gel electrophoresis). Then, the proteins were blotted onto ø 0.2 µm pore PVDF membrane. […] The signals were detected using the ECL chemiluminescence system (Thermo Scientific, Rockford, IL, USA).
# [5] = tested on: serine-/threonine kinases (JNK1/2, p38) in 22Rv1 cells; assay: Kinome profiling of serine/threonine kinases (PamGene), upstream kinase analysis; type: cell-based, human; conditions: 22Rv1, 1 µM and 10 µM, 2 h
# Description: To further investigate the mechanism of anticancer action of NB, we examined the effects of the compound on serine-/threonine protein kinases. Protein kinases modify target molecules (proteins) via phosphorylation, thus, altering their activity. A subgroup of these kinases—serine-/threonine kinases (STK)—play a key role in various essential processes related to cell death and cell survival. Consequently, protein kinases, in general, are important target molecules for various anticancer drugs. Specifically, modification of STKs’ activity has been exploited as a mechanism of action. Several clinically approved drugs, such as sunitinib, palbociclib, cobimetinib, and axitinib, utilize this mechanism to execute their therapeutic action. Thus, we performed functional kinomics using the microarray-based PamGene technology. This method allows a systematic examination of the changes in STK activity (http://www.pamgene.de, accessed on 22 January 2022, Figure 5A–D). We used two different concentrations, specifically, 1 µM and 10 µM, in order to cover different biological effects, which may take place at the different drug doses (Figure 5A). […]
# Figure 5 Kinome profiling of serine/threonine kinases (STKs). 22Rv1 cells were incubated with NB for 2 h; the proteins were extracted and STK were analyzed using functional kinome profiling. […]
smiles,measurement,setting,value
"COc1ccc(C2SSC34CC5(O)C(Cl)C=CC(O)C5ON3C(=O)C2N(C)C4=O)c(O)c1OC (stereo not drawn) [NB, N-methylpretrichodermamide B]",MIC,[1],8–32 µm/mL
same,IC50 in PC3-DR compared to the parental PC3 cells,[2]; 48 h,twofold lower
same,IC50,"[2]; Homo sapiens, PC3-DR, 48 h of treatment, mean ± SD",3.63 ± 1.03 µM
same,IC50,[3],> 10 µM
same,concentration at which cleavage of caspase-3 was detected,[4],6 µM
same,"upstream kinase analysis, JNK1/2 and p38 kinases",[5],very likely upregulated

# — PMC9605374 (Marine Drugs, 2022)
